pEC50, pIC50: −log10 of the molar value.

The values that follow come from ChEMBL document CHEMBL1131339 (J Med Chem, 1998).

For one assay, the target named is Melatonin receptor (Gallus gallus, UniProt P49288+P51050+P49285). Nature of the assay: Binding affinity towards melatonin receptor, determined in chicken brain membranes using [2-125I]melatonin. In kind it is cell membranes, Membrane.
Assay [1] deals with Melanophore. Nature of the assay: Effective concentration required to produce 50% of the maximal pigment aggregation in Xenopus laevis dermal melanophore cell line; No agonist effect detected at 100 uM. In kind it is functional, cell-based, frog.
Assay [2] has as its system Melanophore. Put plainly: Inhibitory concentration against melatonin-induced pigment aggregation by 50% in Xenopus laevis dermal melanophore cell line. In kind it is functional, cell-based, frog.
In assay [3] the test system is Melanophore. Put plainly: Inhibitory concentration against melatonin-induced pigment aggregation by 50% in Xenopus laevis dermal melanophore cell line; Antagonism detected at 100 uM but IC50 not calculated. In kind it is functional, cell-based, frog.
The subject of assay [4] is Melanophore. Put plainly: Effective concentration required to produce 50% of the maximal pigment aggregation in Xenopus laevis dermal melanophore cell line. It counts as functional, cell-based, frog. The settings on record: Xenopus laevis, Melanophore.

The Ki is the dissociation constant of the complex between target and ligand, obtained from inhibition or displacement. As usually defined, the pIC50 is the IC50 on a negative log10 scale, so that one unit is a factor of ten. Low values mean a high IC50, high ones a low IC50. `Cn1c2c(c3ccccc31)C(CNC(=O)C1CCC1)CC2` (stereo unspecified): the Ki at Melatonin receptor is 5.7 µM. In addition, in the assay with Melanophore [1], the EC50 entry is “Not Active”. In addition, in the assay on Melanophore [2], the pIC50 is 4.30.
The pEC50 is −log10 of the EC50, conventionally taken in molar units. High values mean a low EC50, low ones a high EC50. For `CCCC(=O)NCC1CCc2c1c1ccccc1n2C` (stereo unspecified), the Ki at Melatonin receptor was 0.239 µM. The IC50 entry in the assay on Melanophore [3] is listed as “Antagonist”. This compound also showed a pEC50 in the assay on Melanophore [4] of 5.58.
At Melatonin receptor, `CCC(=O)NCC1CCCCc2c1c1ccccc1n2C` (stereo unspecified) returned a Ki of 0.129 µM. In addition, the IC50 entry in the assay with Melanophore [3] is recorded as “Antagonist”. Further, the EC50 entry in the assay with Melanophore [1] was “Not Active”.
`CCCC(=O)NCC1CCCCc2c1c1cc(OC)ccc1n2C` (stereo unspecified) came in with a Ki at Melatonin receptor of 0.0103 µM. Also, the IC50 result with Melanophore [3] was “Antagonist”. This compound gave a pEC50 with Melanophore [4] of 6.85.
The matching figures for `CCC(=O)NCC1CCc2c1c1ccccc1n2C` (stereo unspecified): 0.272 µM, “Antagonist” and 5.39.
Take `Cn1c2c(c3cc(Cl)ccc31)C(CNC(=O)C1CCC1)CCC2` (stereo unspecified): at Melatonin receptor, the Ki amounted to 0.1872 µM. The EC50 entry with Melanophore [1] was “Not Active”. Besides, the pIC50 in the assay with Melanophore [2] was 4.85.
On the same counts, the results for `CCCCC(=O)NCC1CCCCc2c1c1cc(OC)ccc1n2C` (stereo unspecified) are 0.471 µM, “Not Active” and 4.41.
The matching figures for `Cn1c2c(c3ccccc31)C(CNC(=O)C1CC1)CCCC2` (stereo unspecified): 1.22 µM, “Not Active” and 4.25.
Turning to `CC(=O)NCC1CCCc2c1c1ccccc1n2C` (single isomer, unassigned; (+)), the Ki at Melatonin receptor came to 0.708 µM. In the assay with Melanophore [1], the EC50 entry is reported as “Not Active”. Moreover, the pIC50 in the assay with Melanophore [2] is 5.19.
Compound `CCC(=O)NCC1CCCCc2c1c1cc(OC)ccc1n2C` (single isomer, unassigned; (+)) showed a Ki at Melatonin receptor of 0.2015 µM. Moreover, the EC50 entry with Melanophore [1] was “Not Active”. Also, the IC50 entry with Melanophore [2] is given as “Not Active”.
In the case of `CCC(=O)NCC1CCCCc2c1c1cc(OC)ccc1n2C` (stereo in doubt; 11i), the Ki on Melatonin receptor stood at 0.007 µM. Moreover, in the assay on Melanophore [3], the IC50 result is reported as “Antagonist”. Further, the pEC50 in the assay on Melanophore [4] is 7.04.
`CC(=O)NCCc1c(Cc2ccccc2)[nH]c2ccccc12` [LUZINDOLE] gave a Ki at Melatonin receptor of 1.606 µM. The EC50 result in the assay with Melanophore [1] is given as “Not Active”. The pIC50 with Melanophore [2] was 5.68.
